The term pEC50 denotes −log10 of the EC50, conventionally taken in molar units. The EC50 is the concentration needed to bring the measured effect to its halfway point.

We go through 62 compounds from patent US20120157401A1, “METHODS FOR TREATING NEUROFIBROMATOSIS” (PTC Therapeutics, Inc., priority 2009, published 2012).

The structures appear in SMILES notation. pEC50: −log10 of the molar value.

One assay relates to hypoxia-inducible endogenous VEGF expression. Description: Hypoxia-inducible endogenous VEGF expression ELISA in HeLa cells, dose-response EC50 (Table 3). The format is cell-based, human. Particulars: HeLa cells, hypoxic conditions (1% O2), 24-48 hours, VEGF in conditioned media; read-out: ELISA EC50. The protocol:
The ability of the Compounds to modulate hypoxia-inducible endogenous VEGF expression may be analyzed as follows. VEGF protein levels may be monitored by an ELISA assay (R&D Systems). Briefly, HeLa cells may be cultured for 24-48 hours under hypoxic conditions (1% O2, 5% CO2, balanced with nitrogen) in the presence or absence of a Compound. The conditioned media may then be assayed by ELISA, and the concentration of VEGF calculated from the standard ELISA curve of each assay.
A dose-response analysis may be performed using the ELISA assay and conditions described above. The conditions for the dose-response ELISA are analogous to those described above. A series of, e.g., seven different concentrations may be analyzed. In parallel, a dose-response cytotoxicity assay may be performed using Cell Titer Glo (Promega) under the same conditions as the ELISA to ensure that the inhibition of VEGF expression was not due to the cytotoxicity.
As to `C=CCOc1ccc(C2c3[nH]c4ccc(Cl)cc4c3CCN2C(=O)Oc2ccc(Cl)cc2)cc1` (centres unmarked) [Compound 400], the pEC50 is more than 8.10.

Turning to `Cc1ccc(C2c3[nH]c4ccc(Br)cc4c3CCN2C(=O)Oc2ccc(F)cc2)cc1` (centres unmarked) [Compound 403], the pEC50 was more than 8.10.

In the case of `COc1ccc(C2c3[nH]c4ccc(Cl)cc4c3CCN2C(=O)Oc2ccc(F)cc2)cc1` (centres unmarked) [Compound 410], the pEC50 was more than 8.10.

In the case of `O=C(Oc1ccc(F)cc1)N1CCc2c([nH]c3ccc(Br)cc23)C1c1ccc(C(F)(F)F)cc1` (centres unmarked) [Compound 426], the pEC50 is more than 8.10.

Turning to `O=C(Oc1ccc(Cl)cc1)N1CCc2c([nH]c3ccc(Cl)cc23)C1c1ccc(S(=O)(=O)N2CCOCC2)cc1` (centres unmarked) [Compound 450], the pEC50 is 7.40 to 8.10.

The same assay, now with this note: Homo sapiens, HeLa, read-out: ELISA EC50 μM.
Regarding `O=C(Oc1ccc(Cl)cc1)N1CCc2c([nH]c3ccc(Cl)cc23)C1c1ccc(OCCN2CCOCC2)cc1` (centres unmarked) [Compound 331], the concentration for a half-maximal effect (EC50) was more than 1 µM.

As for `CC(=O)N1CCN(CC(O)COc2ccc(C3c4[nH]c5ccc(Cl)cc5c4CCN3C(=O)Oc3ccc(Cl)cc3)cc2)CC1` (centres unmarked) [Compound 415], the EC50 is less than 0.008 µM.

Take `O=C(Oc1ccc(Cl)cc1)N1CCc2c([nH]c3ccc(Cl)cc23)C1c1ccc(OCCCN2CCCC2)cc1` (centres unmarked) [Compound 429]: the EC50 was less than 0.008 µM.

Consider `O=C(Oc1ccc(Cl)cc1)N1CCc2c([nH]c3ccc(Cl)cc23)C1c1ccc(OCCCN2CCCCC2)cc1` (centres unmarked) [Compound 433], for which the concentration for a half-maximal effect (EC50) was less than 0.008 µM.

`O=C(CN1CCOCC1)Nc1ccc(C2c3[nH]c4ccc(Cl)cc4c3CCN2C(=O)Oc2ccc(Cl)cc2)cc1` (centres unmarked) [Compound 454]: the EC50 lay within 0.008 to 0.04 µM.

Turning to `O=C(Oc1ccc(Cl)cc1)N1CCc2c([nH]c3ccc(Cl)cc23)C1c1ccc(OCC(O)CN2CCCC2)cc1` (centres unmarked) [Compound 462], the concentration for a half-maximal effect (EC50) was in the range of 0.008 to 0.04 µM.

In the case of `CN(C)CCCOc1ccc(C2c3[nH]c4ccc(Cl)cc4c3CCN2C(=O)Oc2ccc(Br)cc2)cc1` (centres unmarked) [Compound 468], the half-maximal effective concentration (EC50) is 0.008 to 0.04 µM.

Regarding `CN(C)CCCOc1ccc(C2c3[nH]c4ccc(Cl)cc4c3CCN2C(=O)Oc2ccc(Cl)cc2)cc1` (centres unmarked) [Compound 479], the EC50 lay in the range of 0.04 to 0.2 µM.

The assay is the same for the next values; noted with them: Homo sapiens; HeLa cells, hypoxic conditions (1% O2), 24-48 hours, VEGF in conditioned media; read-out: ELISA EC50.
In the case of `COc1ccc(OC(=O)N2CCc3c([nH]c4ccc(Br)cc34)[C@@H]2c2ccc(Cl)cc2)cc1` [#332], the negative logarithm of the EC50 (pEC50) is less than 6.00.

As for `O=C(Oc1ccc(F)cc1)N1CCc2c([nH]c3ccc(Cl)cc23)C1c1ccc(OCCNc2nccs2)cc1` (centres unmarked) [#837], the pEC50 was more than 8.10.

On to `Cc1cnc(NCCOc2ccc(C3c4[nH]c5ccc(Cl)cc5c4CCN3C(=O)Oc3ccc(F)cc3)cc2)s1` (centres unmarked) [#838], for which the pEC50 is more than 8.10.

With `O=C(Oc1ccc(Cl)cc1)N1CCc2c([nH]c3ccc(Cl)cc23)C1c1ccc(OCCNc2nccs2)cc1` (centres unmarked) [#841], the pEC50 was more than 8.10.

With `Cc1cnc(NCCOc2ccc(C3c4[nH]c5ccc(Cl)cc5c4CCN3C(=O)Oc3ccc(Cl)cc3)cc2)s1` (centres unmarked) [#842], the pEC50 is more than 8.10.

Regarding `O=C(Oc1ccc(Cl)cc1)N1CCc2c([nH]c3ccc(Cl)cc23)C1c1ccc(OCCNc2cccnc2)cc1` (centres unmarked) [#843], the pEC50 is more than 8.10.

As for `COc1ccc(C2c3[nH]c4ccc(Cl)cc4c3CCN2C(=O)Oc2ccc(C)cc2)cc1` (centres unmarked) [Compound 17], the pEC50 was more than 8.10.

`COc1ccc(C2c3[nH]c4ccc(Cl)cc4c3CCN2C(=O)Oc2ccccc2)cc1` (centres unmarked) [Compound 60]: the negative logarithm of the EC50 (pEC50) was 7.40 to 8.10.

On to `O=C(Oc1ccccc1)N1CCc2c([nH]c3ccc(Br)cc23)C1c1ccccc1` (centres unmarked) [Compound 76], for which the negative-log EC50 (pEC50) was 7.40 to 8.10.

For `O=C(Oc1ccccc1)N1CCc2c([nH]c3ccc(Cl)cc23)C1c1ccccc1` (centres unmarked) [Compound 121], the negative-log EC50 (pEC50) is 7.40 to 8.10.

As to `COc1ccc(C2c3[nH]c4ccc(Cl)cc4c3CCN2C(=O)O[C@H]2C[C@@H](C)CC[C@@H]2C(C)C)cc1` (some centres unmarked) [Compound 192], the negative logarithm of the EC50 (pEC50) is 6.00 to 6.70.

In the case of `COc1ccc(C2c3[nH]c4ccc(C)cc4c3CCN2C(=O)Oc2ccc(Cl)cc2)cc1` (centres unmarked) [Compound 341], the negative-log EC50 (pEC50) was 6.70 to 7.40.

On to `Cc1ccc2[nH]c3c(c2c1)CCN(C(=O)Oc1ccc(Cl)cc1)C3c1ccc(C(C)C)cc1` (centres unmarked) [Compound 344], for which the pEC50 was 7.40 to 8.10.

As to `O=C(Oc1ccc(Cl)cc1)N1CCc2c([nH]c3ccc(Cl)cc23)C1c1ccc(S(=O)(=O)N2CCOCC2)cc1` (centres unmarked) [Compound 346], the pEC50 is 7.40 to 8.10.

Turning to `Cc1ccc(C2c3[nH]c4ccc(Cl)cc4c3CCN2C(=O)Oc2ccc(Cl)cc2)cc1` (centres unmarked) [Compound 347], the negative-log EC50 (pEC50) was more than 8.10.

Regarding `CC(C)c1ccc(C2c3[nH]c4ccc(Cl)cc4c3CCN2C(=O)Oc2ccc(Cl)cc2)cc1` (centres unmarked) [Compound 348], the pEC50 is more than 8.10.

As for `N#Cc1ccc(C2c3[nH]c4ccc(Cl)cc4c3CCN2C(=O)Oc2ccc(Cl)cc2)cc1` (centres unmarked) [Compound 350], the negative-log EC50 (pEC50) was more than 8.10.

For the compound `O=C(Oc1ccc(Cl)cc1)N1CCc2c([nH]c3ccc(Cl)cc23)C1c1ccc(Cl)cc1` (centres unmarked) [Compound 351], the pEC50 is 7.40 to 8.10.

With `Cc1ccc(C2c3[nH]c4ccc(Br)cc4c3CCN2C(=O)Oc2ccc(Cl)cc2)cc1` (centres unmarked) [Compound 353], the negative-log EC50 (pEC50) is more than 8.10.

As for `CC(C)c1ccc(C2c3[nH]c4ccc(Br)cc4c3CCN2C(=O)Oc2ccc(Cl)cc2)cc1` (centres unmarked) [Compound 354], the negative-log EC50 (pEC50) was more than 8.10.

`COc1ccc(C2c3[nH]c4ccc(Br)cc4c3CCN2C(=O)Oc2ccc(Cl)cc2)cc1` (centres unmarked) [Compound 355]: the negative logarithm of the EC50 (pEC50) was more than 8.10.

Consider `COc1ccc(OC(=O)N2CCc3c([nH]c4ccc(Cl)cc34)C2c2ccc(S(C)(=O)=O)cc2)cc1` (centres unmarked) [Compound 359], for which the pEC50 is 6.70 to 7.40.

Turning to `CS(=O)(=O)c1ccc(C2c3[nH]c4ccc(Cl)cc4c3CCN2C(=O)Oc2ccc(Cl)cc2)cc1` (centres unmarked) [Compound 360], the pEC50 is 7.40 to 8.10.

Turning to `O=C(COc1ccc(C2c3[nH]c4ccc(Cl)cc4c3CCN2C(=O)Oc2ccccc2)cc1)Oc1ccccc1` (centres unmarked) [Compound 366], the negative logarithm of the EC50 (pEC50) was less than 6.00.

As for `COCCOc1ccc(C2c3[nH]c4ccc(Cl)cc4c3CCN2C(=O)Oc2ccc(F)cc2)cc1` (centres unmarked) [Compound 388], the pEC50 is more than 8.10.

For `O=C(Oc1ccc(Cl)cc1)N1CCc2c([nH]c3ccc(Cl)cc23)C1c1ccc(OCCCn2cncn2)cc1` (centres unmarked) [Compound 391], the pEC50 is more than 8.10.

On to `COC(=O)c1ccc(C2c3[nH]c4ccc(Cl)cc4c3CCN2C(=O)Oc2ccc(F)cc2)cc1` (centres unmarked) [Compound 395], for which the negative-log EC50 (pEC50) was more than 8.10.

Take `O=C(Oc1ccc(F)cc1)N1CCc2c([nH]c3ccc(Br)cc23)C1c1ccc(C(F)(F)F)cc1` (centres unmarked) [Compound 397]: the pEC50 is more than 8.10.

Consider `Cc1ccc(C2c3[nH]c4ccc(Br)cc4c3CCN2C(=O)Oc2ccc(F)cc2)cc1` (centres unmarked) [Compound 398], for which the negative logarithm of the EC50 (pEC50) is more than 8.10.

As for `COc1ccc(C2c3[nH]c4ccc(Cl)cc4c3CCN2C(=O)Oc2ccc(F)cc2)cc1` (centres unmarked) [Compound 401], the pEC50 was more than 8.10.

As for `O=C(Oc1ccc(Cl)cc1)N1CCc2c([nH]c3ccc(Br)cc23)C1c1ccc(C(F)(F)F)cc1` (centres unmarked) [Compound 405], the negative logarithm of the EC50 (pEC50) is more than 8.10.

Turning to `C=CCOc1ccc(C2c3[nH]c4ccc(Cl)cc4c3CCN2C(=O)Oc2ccc(F)cc2)cc1` (centres unmarked) [Compound 409], the negative logarithm of the EC50 (pEC50) is more than 8.10.

On to `C=CCOc1ccc(C2c3[nH]c4ccc(Cl)cc4c3CCN2C(=O)Oc2ccccc2)cc1` (centres unmarked) [Compound 413], for which the negative-log EC50 (pEC50) was more than 8.10.

`O=C(Oc1ccc(Cl)cc1)N1CCc2c([nH]c3ccc(Cl)cc23)C1c1ccc(OCCCn2ccnn2)cc1` (centres unmarked) [Compound 417]: the negative-log EC50 (pEC50) was more than 8.10.

`COCCOc1ccc(C2c3[nH]c4ccc(Cl)cc4c3CCN2C(=O)Oc2ccc(Cl)cc2)cc1` (centres unmarked) [Compound 418]: the pEC50 is more than 8.10.

On to `O=C1OCC(COc2ccc(C3c4[nH]c5ccc(Cl)cc5c4CCN3C(=O)Oc3ccc(Cl)cc3)cc2)O1` (centres unmarked) [Compound 421], for which the negative-log EC50 (pEC50) was more than 8.10.

Regarding `O=C(Oc1ccc(Cl)cc1)N1CCc2c([nH]c3ccc(Cl)cc23)C1c1ccc(I)cc1` (centres unmarked) [Compound 428], the pEC50 is more than 8.10.

For `C=CCOc1ccc(C2c3[nH]c4ccc(Cl)cc4c3CCN2C(=O)Oc2ccc(OC)cc2)cc1` (centres unmarked) [Compound 432], the pEC50 is more than 8.10.

In the case of `COCCOc1ccc(C2c3[nH]c4ccc(Cl)cc4c3CCN2C(=O)Oc2ccccc2)cc1` (centres unmarked) [Compound 436], the pEC50 was more than 8.10.

Regarding `O=C(Nc1ccc(C2c3[nH]c4ccc(Cl)cc4c3CCN2C(=O)Oc2ccc(Cl)cc2)cc1)c1ccco1` (centres unmarked) [Compound 437], the negative-log EC50 (pEC50) was more than 8.10.

Turning to `O=C(Oc1ccc(Cl)cc1)N1CCc2c([nH]c3ccc(Cl)cc23)C1c1ccc(NC2CCOCC2)cc1` (centres unmarked) [Compound 440], the pEC50 was more than 8.10.

In the case of `O=C(Oc1ccc(Cl)cc1)N1CCc2c([nH]c3ccc(Cl)cc23)C1c1ccc(F)cc1` (centres unmarked) [Compound 444], the negative logarithm of the EC50 (pEC50) was 7.40 to 8.10.

As for `O=C(Oc1ccc(F)cc1)N1CCc2c([nH]c3ccc(Cl)cc23)C1c1ccc(F)cc1` (centres unmarked) [Compound 452], the pEC50 was 7.40 to 8.10.

As to `COc1ccc(OC(=O)N2CCc3c([nH]c4ccc(Cl)cc34)C2c2ccc(S(=O)(=O)N3CCOCC3)cc2)cc1` (centres unmarked) [Compound 455], the pEC50 was 7.40 to 8.10.

For `O=C(Oc1ccc(Cl)cc1)N1CCc2c([nH]c3ccc(Cl)cc23)C1c1ccc(OCC2CO2)cc1` (centres unmarked) [Compound 460], the negative logarithm of the EC50 (pEC50) is 7.40 to 8.10.

With `CC(=O)Oc1ccc(C2c3[nH]c4ccc(Cl)cc4c3CCN2C(=O)Oc2ccc(Cl)cc2)cc1` (centres unmarked) [Compound 463], the negative-log EC50 (pEC50) was 7.40 to 8.10.

Turning to `COCCOc1ccc(C2c3[nH]c4ccc(Cl)cc4c3CCN2C(=O)Oc2ccc(OC)cc2)cc1` (centres unmarked) [Compound 465], the pEC50 is 7.40 to 8.10.

With `CCOC(=O)Nc1ccc(C2c3[nH]c4ccc(Cl)cc4c3CCN2C(=O)Oc2ccc(Cl)cc2)cc1` (centres unmarked) [Compound 467], the negative-log EC50 (pEC50) was 7.40 to 8.10.

As to `COCCOC(=O)Nc1ccc(C2c3[nH]c4ccc(Cl)cc4c3CCN2C(=O)Oc2ccc(Cl)cc2)cc1` (centres unmarked) [Compound 470], the pEC50 is 7.40 to 8.10.
